The text below walks through data of article PMC8537901, “Progesterone Metabolism by Human and Rat Hepatic and Intestinal Tissue” (Pharmaceutics, 2021).

Data set [1] is described as follows: Tissue homogenate stability assay, human liver homogenate. It counts as in vitro ADME. The note with it: for half-life: human, liver homogenate. How it is done:
(§1) Progesterone stability was determined in rat and human intestinal mucosa and liver homogenates. In addition, progesterone was incubated in stock solution containing phosphate-buffered saline, 0.1% Tween80 and 1% DMSO. […] Stability assays were carried out either in the presence or absence of 1mM of the cofactor NADPH. The physiological concentration of NADPH was approximately 100 µM [26]. However, for the purpose of this research, a concentration of 1 mM was used to ensure an excess of co-factor was available and not rate-limited throughout the incubation period.
(§2) The protein concentration for the rat and human liver and intestinal homogenates was adjusted to 5 mg/mL. […] A final concentration of 1 µM progesterone and 1 mM NADPH (where required) was added to the homogenate, and samples were immediately taken (t–0). Next, the homogenate solution was incubated with shaking (700 rpm) at 37 °C, and further samples were taken at timed intervals. To stop the enzymatic reaction, samples were immediately diluted in ice-cold acetonitrile at a ratio of 1:3 sample:acetonitrile. The samples were then centrifuged at 3000 rpm for 30 min to pellet the homogenates.

A short description of data set [2]: Tissue homogenate stability assay, rat liver homogenate. It is filed as in vitro ADME. The note with it: for half-life: Sprague Dawley, rat. How it is done:
as §1, §2

The nature of data set [3]: Tissue homogenate stability assay, human intestinal homogenate. It counts as in vitro ADME. The note with it: for half-life: human. How it is done: as §1, §2
Data set [4] can be described thus: Tissue homogenate stability assay, rat intestinal homogenate. It counts as in vitro ADME. The note with it: for half-life: Sprague Dawley, rat. How it is done: as §1, §2
The nature of data set [5]: Stability in control media (phosphate-buffered saline, 0.1% Tween80, 1% DMSO, pH 7.4). It counts as physicochemical. How it is done:
as §1

Data set [6] is described as follows: Human cytosol stability assay, liver cytosol. The note with it: for half-life at 1 µM: human, t1/2 (min); for effect of inhibitor on rate of progesterone depletion: presence of NADPH, inhibitor 100 µM.
Protocol: (§3) Progesterone stability was assessed in intestinal and liver cytosol in the presence or absence of NADPH cofactor and specific enzyme inhibitors. For both intestinal and liver cytosol, the protein concentration was adjusted to 0.5 mg/mL. Both human liver and intestinal cytosol (with 0.1 mM EDTA) were then pre-incubated for 10 min in a thermomixer comfort by Eppendorf in an RNAse/DNAse 96-well plate until reaching a temperature of 37 °C. Next, a final concentration of 100 µM of enzyme inhibitors were added to the cytosol. […] The enzyme inhibitors used during this study were: Epalrestat (AKR1B1 inhibitor), Diazepam (AKR1C inhibitor), Finasteride (AKR1D1 inhibitor), Diazepam + Flufenamic Acid (AKR1C inhibitor cocktail), Menadione (aldehyde oxidase inhibitor) and Allopurinol (xanthine oxidase inhibitor).
(§4) Next, the mixtures were incubated for an additional 5 min, and NADPH was added at a final concentration of 1 mM. Finally, progesterone (1 µM) was added and mixed by pipetting to initiate the reaction. Immediately following reaction initiation, a 50 µL sample was taken. The sample was then diluted in 100 µL of acetonitrile to terminate enzymatic reaction. Samples were centrifuged at 4 °C and 2500 rpm for 30 min. Following centrifugation, the supernatant was removed and diluted 1:1 with milli-Q water. […] This process was followed for sampling at all required time intervals.
(§5) Liquid chromatography with tandem mass spectrometry (LC MS/MS) was used to analyse samples obtained from both cytosol and homogenate stability assays (see Appendix A Figure A1 for example spectra). […] The column used was Aquity HSS T3 (1.8 µm) 2.1 × 50 mm (Water Ltd., Herts, UK), and the samples were run with an injection volume of 8 µL at 70 °C. A solvent system and gradient with a flow rate of 600 µL/minute was used to perform this analysis. The mobile phase consisted of 10 mM ammonium formate with 0.1% v/v formic acid in water (A) and acetonitrile (B).
(§6) The percent of substrate present at each timepoint relative to the 0 min sample was calculated from the LC-MS/MS peak area ratios (compound peak area/internal standard peak area). […] The Kolmogorov–Smirnov test was used to assess normality followed by Student’s t-test. Results were considered statistically significant when p < 0.05.
Data set [7] can be described thus: Human cytosol stability assay, intestinal cytosol. The note with it: for half-life at 1 µM: human, human intestinal cytosol, t1/2 (min).
Protocol: as §3, §4, §5, §6
The mark [8] stands for this setting: human liver homogenate, no NADPH.
The mark [9] stands for this setting: rat liver homogenate + 1 mM NADPH.
[10] abbreviates: human intestinal homogenate + 1 mM NADPH.
The mark [11] stands for this setting: human intestinal homogenate, no NADPH.
Setting [12] is: rat intestinal homogenate + 1 mM NADPH.
Setting [13] is: human liver cytosol + NADPH + AKR1B1 inhibitor (Epalrestat 100 µM).
The mark [14] stands for this setting: human liver cytosol + NADPH + AKR1C1 cocktail (Diazepam + Flufenamic Acid).
Setting [15] is: human liver cytosol + NADPH, no inhibitor.
The mark [16] stands for this setting: human intestinal cytosol + NADPH + AKR1B inhibitor (Epalrestat 100 µM).
Setting [17] is: human intestinal cytosol + NADPH, no inhibitor.

What is called half-life is the time needed for the level to fall by half in the phase considered. For `CC(=O)[C@H]1CC[C@H]2[C@@H]3CCC4=CC(=O)CC[C@]4(C)[C@H]3CC[C@]12C` [Progesterone], the “% Drug Remaining After 60 min” value in data set [1] (human liver homogenate + 1 mM NADPH) stood at 0.27 ± 0.26%; in data set [1] (setting [8]) it was 43.32 ± 4.84%; in data set [2] (setting [9]) it was 0.03 ± 0.0005%; in data set [2] (rat liver homogenate, no NADPH), 46.04 ± 0.69%; in data set [3] (setting [10]), 73.92 ± 5.11%; in data set [3] (human intestinal homogenate + 1 mM NADPH, listed as progesterone) it was 74%. In addition, the “% Drug Remaining After 60 min” value in data set [3] (setting [11]) is 75.82 ± 9.35%; in data set [3] (human intestinal homogenate, no NADPH, listed as progesterone), 76%; in data set [4] (setting [12]) it was 76.67 ± 4.72%; in data set [4] (rat intestinal homogenate + 1 mM NADPH, listed as progesterone), 77%; in data set [4] (rat intestinal homogenate, no NADPH) it was 90.93 ± 2.19%; in data set [4] (rat intestinal homogenate, no NADPH, listed as progesterone), “over 90%”. For the same compound, the “% Drug Remaining After 60 min” value in data set [6] (setting [13]) stood at 6.6 ± 6.24%; in data set [6] (setting [14]), 33.5 ± 1.72%; in data set [6] (human liver cytosol + NADPH + AKR1C1 inhibitor (Diazepam 100 µM)) it was 0.11 ± 0.04%; in data set [6] (human liver cytosol + NADPH + AKR1D1 inhibitor (Finasteride 100 µM)) it was 7.85 ± 6.31%; in data set [6] (human liver cytosol + NADPH + AOX inhibitor (Menadione 100 µM)), 0.97 ± 0.88%; in data set [6] (setting [15]) it was 0.04 ± 0.01%. Further, the “% Drug Remaining After 60 min” value in data set [6] (human liver cytosol, absence of NADPH, + AOX inhibitor (Menadione 100 µM)) was found to be 69.14 ± 2.91%; in data set [6] (human liver cytosol, absence of NADPH, + XAO inhibitor (Allopurinol 100 µM)), 57.09 ± 2.01%; in data set [6] (liver cytosol section (Figure 4), absence of NADPH, no inhibitor, line printed as Human intestinal Cytosol), 56.6 ± 2.07%; in data set [7] (setting [16]), 80.87 ± 7.84%; in data set [7] (human intestinal cytosol + NADPH + AKR1C1 inhibitor (Diazepam 100 µM)) it was 77.38 ± 6.37%; in data set [7] (human intestinal cytosol + NADPH + AKR1C cocktail (Diazepam + Flufenamic Acid)) it was 73.56 ± 3.69%. The “% Drug Remaining After 60 min” value in data set [7] (human intestinal cytosol + NADPH + AKR1D1 inhibitor (Finasteride 100 µM)) worked out at 79.56 ± 4.44%; in data set [7] (setting [17]), 72.51 ± 6.48%. Besides, the “% of original concentration remaining” value in data set [1] (human liver homogenate + NADPH, within 10 min of incubation) is given as “less than 2%”; in data set [2] (rat liver homogenate + NADPH, within 10 min of incubation), “less than 2%”. Besides, the “% of the drug remaining” value in data set [1] (human liver homogenate, absence of NADPH, after two hours of incubation) is on record as “over 40%”; in data set [2] (rat liver homogenate, absence of NADPH, after two hours of incubation), “over 40%”. Also, the half-life in data set [1] (human liver homogenate + 1 mM NADPH, 1 µM progesterone, 5 mg/mL protein, 37 °C) amounted to 0.045 ± 0.000833 h; in data set [1] (setting [8]) it was 0.649 ± 0.195 h; in data set [2] (liver homogenate, pH 7.4, rat liver homogenate, no NADPH) it was 0.663 ± 0.169 h; in data set [2] (rat liver homogenate, pH 7.4, rat liver homogenate + 1 mM NADPH) it was 0.045 h; in data set [3] (human intestinal homogenate, human intestinal homogenate + 1 mM NADPH) it was 2.62 h; in data set [3] (setting [11]), 2.6 ± 0.229 h. The half-life in data set [4] (rat intestinal homogenate, pH 7.4, rat intestinal homogenate + 1 mM NADPH) is 3.29 h; in data set [4] (rat intestinal homogenate, pH 7.4, rat intestinal homogenate, no NADPH) it was 5.87 ± 0.614 h. Also, the “t1/2” value in data set [2] (setting [9]) turned out to be 2.72 ± 0.05 min; in data set [3] (setting [10]) it was 2.6203 ± 0.4568 h; in data set [4] (setting [12]) it was 3.2938 ± 0.0485 h; in data set [6] (setting [13]), 0.3135 ± 0.016 h; in data set [6] (setting [14]), 0.5927 ± 0.111 h; in data set [6] (setting [15]), 0.2288 ± 0.0135 h. Further, the “t1/2” value in data set [7] (setting [16]) was 3.0687 ± 0.3158 h; in data set [7] (setting [17]), 2.1587 ± 0.0458 h. The “% detectable in control media” value in data set [5] (after 2 h in control media) was found to be 99%. Also, the “time stable in stock solution” value in data set [5] (phosphate-buffered saline, 0.1% Tween80, 1% DMSO, pH 7.4, 1 µM) is given as “up to 6 h”. Further, the half-life at 1 µM in data set [6] (human liver cytosol, human liver cytosol + NADPH + AKR1C1 cocktail (Diazepam + Flufenamic Acid)) was 0.593 h; in data set [6] (human liver cytosol, human liver cytosol + NADPH, no inhibitor), 0.217 h; in data set [6] (human liver cytosol, liver cytosol section (Figure 4), absence of NADPH, no inhibitor, line printed as Human intestinal Cytosol), 1.72 ± 0.156 h; in data set [6] (human liver cytosol, with Allopurinol (xanthine oxidase inhibitor), 100 µM, human liver cytosol, absence of NADPH, + XAO inhibitor (Allopurinol 100 µM)), 1.66 ± 0.152 h; in data set [6] (human liver cytosol, with Diazepam (AKR1C1 inhibitor), 100 µM, human liver cytosol + NADPH + AKR1C1 inhibitor (Diazepam 100 µM)), 0.235 ± 0.004 h; in data set [6] (human liver cytosol, with Epalrestat (AKR1B1 inhibitor), 100 µM, human liver cytosol + NADPH + AKR1B1 inhibitor (Epalrestat 100 µM)) it was 0.3 h. Moreover, the half-life at 1 µM in data set [6] (human liver cytosol, with Finasteride (AKR1D1 inhibitor), 100 µM, human liver cytosol + NADPH + AKR1D1 inhibitor (Finasteride 100 µM)) stood at 0.308 ± 0.0283 h; in data set [6] (human liver cytosol, with Menadione (aldehyde oxidase inhibitor), 100 µM, human liver cytosol, absence of NADPH, + AOX inhibitor (Menadione 100 µM)), 2.21 ± 0.0782 h; in data set [6] (liver cytosol, with Menadione 100 µM (aldehyde oxidase inhibitor), human liver cytosol + NADPH + AOX inhibitor (Menadione 100 µM)), 0.258 ± 0.0338 h; in data set [7] (setting [17]) it was 2.16 h; in data set [7] (with Epalrestat (AKR1B inhibitor), 100 µM, human intestinal cytosol + NADPH + AKR1B inhibitor (Epalrestat 100 µM)) it was 3.07 h; in data set [7] (with Finasteride (AKR1D1 inhibitor), 100 µM, human intestinal cytosol + NADPH + AKR1D1 inhibitor (Finasteride 100 µM)), 3.03 ± 0.0732 h.

Regarding `CC1=CC(=O)c2ccccc2C1=O` [Menadione], in data set [6] (human liver cytosol), the “effect of inhibitor on rate of progesterone depletion” value is given as “not deemed significant”.

For `CN1C(=O)CN=C(c2ccccc2)c2cc(Cl)ccc21` [diazepam, Diazepam], the “effect of inhibitor on rate of progesterone depletion” value in data set [6] (human liver cytosol) is reported as “no significant difference”.
